In the assay the target is T1, TLR9 (Homo sapiens, UniProt Q9NR96).
T1 construct: Fresh blood was collected from normal human donors; endogenous in cells; host or cells: human PBMCs from fresh donor blood
T1 sequence (Q9NR96 26-1032): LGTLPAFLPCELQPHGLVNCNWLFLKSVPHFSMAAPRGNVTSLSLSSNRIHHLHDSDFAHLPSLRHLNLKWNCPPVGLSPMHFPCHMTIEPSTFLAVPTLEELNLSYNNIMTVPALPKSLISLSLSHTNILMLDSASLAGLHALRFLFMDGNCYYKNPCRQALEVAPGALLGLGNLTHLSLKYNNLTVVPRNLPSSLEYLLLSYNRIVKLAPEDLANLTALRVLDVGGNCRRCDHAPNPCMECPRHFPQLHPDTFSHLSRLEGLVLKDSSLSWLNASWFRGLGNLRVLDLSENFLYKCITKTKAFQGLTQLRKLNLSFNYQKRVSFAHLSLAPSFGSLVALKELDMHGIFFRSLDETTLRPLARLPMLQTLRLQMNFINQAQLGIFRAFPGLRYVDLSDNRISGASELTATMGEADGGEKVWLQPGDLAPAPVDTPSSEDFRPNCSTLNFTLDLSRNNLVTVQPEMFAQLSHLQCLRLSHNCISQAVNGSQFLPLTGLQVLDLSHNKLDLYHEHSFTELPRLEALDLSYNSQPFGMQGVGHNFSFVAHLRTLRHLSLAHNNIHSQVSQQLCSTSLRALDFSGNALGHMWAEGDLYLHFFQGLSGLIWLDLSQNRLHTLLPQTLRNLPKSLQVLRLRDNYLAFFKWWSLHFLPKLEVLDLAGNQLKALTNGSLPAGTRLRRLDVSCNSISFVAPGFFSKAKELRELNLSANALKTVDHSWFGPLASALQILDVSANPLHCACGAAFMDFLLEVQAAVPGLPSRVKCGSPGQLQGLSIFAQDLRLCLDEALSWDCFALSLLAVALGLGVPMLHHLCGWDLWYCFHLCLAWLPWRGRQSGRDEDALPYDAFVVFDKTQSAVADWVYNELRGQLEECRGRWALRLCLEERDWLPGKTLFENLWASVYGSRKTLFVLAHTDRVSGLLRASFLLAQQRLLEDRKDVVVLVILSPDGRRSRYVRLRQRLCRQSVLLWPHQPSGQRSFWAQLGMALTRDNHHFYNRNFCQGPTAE
Kind of assay: huPBMC TLR9 Antagonist IFNα Assay. Format: cell-based. Particulars: human PBMCs stimulated with ODN2216 0.3 μM, 14-16 hrs; IFNα2b AlphaLISA read-out. The essentials:
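Human PBMCs from fresh donor blood (150,000 cells/well) stimulated 14–16 h at 37 °C with DOTAP-complexed ssRNA40 (final 1 μg/ml for TLR8, 10 μg/mL for TLR7) or ODN2216 (final 0.3 μM, TLR9), 0.25% DMSO, ten-point 1/3 compound dilutions. Supernatant IL-6 read by HTRF (TLR8); IFNα by IFNα2b AlphaLISA (TLR7/TLR9).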
For orientation: In Alpha technology, singlet oxygen from a donor bead excites a nearby acceptor bead.

SMILES strings stand for the structures.

The source of these data is patent US20240376099A1, “COMPOUNDS AND COMPOSITIONS AS INHIBITORS OF ENDOSOMAL TOLL-LIKE RECEPTORS” (Novartis AG, priority 2016, published 2024).

Broadly, the IC50 is the concentration at which inhibition is half-maximal.

In the case of `Cc1nn(CC23CCC(N)(CC2)CC3)c2c1CN(c1ccnc(-c3ccc(C#N)cc3)c1)CC2` [Compound No. 84, 4-(4-(1-((4-aminobicyclo[2.2.2]octan-1-yl)methyl)-3-methyl-6,7-dihydro-1H-pyrazolo[4,3-c]pyridin-5(4H)-yl)pyridin-2-yl)benzonitrile], the IC50 was determined as 1840 nM. To `Cc1cc(N2CCc3c(c(C)nn3CC34CCC(O)(CC3)CC4)C2)c2cnn(C)c2n1` [compound 46, 4-((5-(1,6-dimethyl-1H-pyrazolo[3,4-b]pyridin-4-yl)-3-methyl-4,5,6,7-tetrahydro-1H-pyrazolo[4,3-c]pyridin-1-yl)methyl)bicyclo[2.2.2]octan-1-ol] belongs above 10000 nM; to `Cc1cc(N2CCc3nn(CC45CC(N)(C4)C5)c(C)c3C2)c2cnn(C)c2n1` [compound 52, 3-((5-(1,6-dimethyl-1H-pyrazolo[3,4-b]pyridin-4-yl)-3-methyl-4,5,6,7-tetrahydro-2H-pyrazolo[4,3-c]pyridin-2-yl)methyl)bicyclo[1.1.1]pentan-1-amine], 4860 nM; to `Cc1cc(N2CCc3c(c(C)nn3CC34CCC(NC5CCC5)(CC3)CC4)C2)c2cnn(C)c2n1` [compound 54, N-cyclobutyl-4-((5-(1,6-dimethyl-1H-pyrazolo[3,4-b]pyridin-4-yl)-3-methyl-4,5,6,7-tetrahydro-1H-pyrazolo[4,3-c]pyridin-1-yl)methyl)bicyclo[2.2.2]octan-1-amine], 489 nM. To `Cc1cc(N2CCc3c(c(C)nn3CC34CCC(NC(C)C)(CC3)CC4)C2)c2cnn(C)c2n1` [compound 55, 4-((5-(1,6-dimethyl-1H-pyrazolo[3,4-b]pyridin-4-yl)-3-methyl-4,5,6,7-tetrahydro-1H-pyrazolo[4,3-c]pyridin-1-yl)methyl)-N-isopropylbicyclo[2.2.]octan-1-amine] belongs 1050 nM. `Cc1cc(N2CCc3c(c(C)nn3CC34CCC(NC(C)CO)(CC3)CC4)C2)c2cnn(C)c2n1` (stereo not drawn) [compound 56, 2-((4-((5-(1,6-dimethyl-1H-pyrazolo[3,4-b]pyridin-4-yl)-3-methyl-4,5,6,7-tetrahydro-1H-pyrazolo[4,3-c]pyridin-1-yl)methyl)bicyclo[2.2.2]octan-1-yl)amino)propan-1-ol]: the IC50 is 680 nM. For `CCNC12CCC(Cn3nc(C)c4c3CCN(c3cc(C)nc5c3cnn5C)C4)(CC1)CC2` [compound 57, 4-((5-(1,6-dimethyl-1H-pyrazolo[3,4-b]pyridin-4-yl)-3-methyl-4,5,6,7-tetrahydro-1H-pyrazolo[4,3-c]pyridin-1-yl)methyl)-N-ethylbicyclo[2.2.]octan-1-amine] the value was 497 nM. To `Cc1cc(N2CCc3c(c(C)nn3CC34CCC(N5CCC5)(CC3)CC4)C2)c2cnn(C)c2n1` [compound 64, 1-((4-(azetidin-1-yl)bicyclo[2.2.2]octan-1-yl)methyl)-5-(1,6-dimethyl-1H-pyrazolo[3,4-b]pyridin-4-yl)-3-methyl-4,5,6,7-tetrahydro-1H-pyrazolo[4,3-c]pyridine] belongs 443 nM; to `CCOCCNC12CCC(Cn3nc(C)c4c3CCN(c3cc(C)nc5c3cnn5C)C4)(CC1)CC2` [compound 71, 4-((5-(1,6-dimethyl-1H-pyrazolo[3,4-b]pyridin-4-yl)-3-methyl-4,5,6,7-tetrahydro-1H-pyrazolo[4,3-c]pyridin-1-yl)methyl)-N-(2-ethoxyethyl)bicyclo[2.2.2]octan-1-amine], 488 nM. For `CCOCCN(CCOCC)C12CCC(Cn3nc(C)c4c3CCN(c3cc(C)nc5c3cnn5C)C4)(CC1)CC2` [compound 72, 4-((5-(1,6-dimethyl-1H-pyrazolo[3,4-b]pyridin-4-yl)-3-methyl-4,5,6,7-tetrahydro-1H-pyrazolo[4,3-c]pyridin-1-yl)methyl)-N,N-bis(2-ethoxyethyl)bicyclo[2.2.2]octan-1-amine] the value was 815 nM.

As to `Cc1cc(N2CCc3c(c(C)nn3CC34CCC(N5C[C@@H](O)[C@@H](O)C5)(CC3)CC4)C2)c2cnn(C)c2n1` [compound 74, (3S,4R)-1-(4-((5-(1,6-dimethyl-1H-pyrazolo[3,4-b]pyridin-4-yl)-3-methyl-4,5,6,7-tetrahydro-1H-pyrazolo[4,3-c]pyridin-1-yl)methyl)bicyclo[2.2.2]octan-1-yl)pyrrolidine-3,4-diol], the IC50 was 1540 nM. To `Cc1cc(N2CCc3c(c(C)nn3CC34CCC(N5CC[C@H](O)C5)(CC3)CC4)C2)c2cnn(C)c2n1` [compound 75, (S)-1-(4-((5-(1,6-dimethyl-1H-pyrazolo[3,4-b]pyridin-4-yl)-3-methyl-4,5,6,7-tetrahydro-1H-pyrazolo[4,3-c]pyridin-1-yl)methyl)bicyclo[2.2.2]octan-1-yl)pyrrolidin-3-ol] belongs 963 nM; to `Cc1cc(N2CCc3c(c(C)nn3CC34CCC(N(C)C5CCC5)(CC3)CC4)C2)c2cnn(C)c2n1` [compound 79, N-cyclobutyl-4-((5-(1,6-dimethyl-1H-pyrazolo[3,4-b]pyridin-4-yl)-3-methyl-4,5,6,7-tetrahydro-1H-pyrazolo[4,3-c]pyridin-1-yl)methyl)-N-methylbicyclo[2.2.2]octan-1-amine], 64 nM. For `Cc1cc(N2CCc3c(c(C)nn3CC34CCC(N5C[C@H](O)[C@@H](O)C5)(CC3)CC4)C2)c2cnn(C)c2n1` [compound 80, (3S,4S)-1-(4-((5-(1,6-dimethyl-1H-pyrazolo[3,4-b]pyridin-4-yl)-3-methyl-4,5,6,7-tetrahydro-1H-pyrazolo[4,3-c]pyridin-1-yl)methyl)bicyclo[2.2.2]octan-1-yl)pyrrolidine-3,4-diol] the value was 249 nM. For `Cc1nn(CC23CCC(N4CCCC4)(CC2)CC3)c2c1CN(c1ccnc(-c3ccccc3)c1)CC2` [compound 85, 3-methyl-5-(2-phenylpyridin-4-yl)-1-((4-(pyrrolidin-1-yl)bicyclo[2.2.2]octan-1-yl)methyl)-4,5,6,7-tetrahydro-1H-pyrazolo[4,3-c]pyridine] the value was 569 nM.

Turning to `Cc1cc(N2CCc3c(c(C)nn3CC34CCC(N5CCCC5)(CC3)CC4)C2)c2ccncc2n1` [compound 86, 2-methyl-4-(3-methyl-1-((4-(pyrrolidin-1-yl)bicyclo[2.2.2]octan-1-yl)methyl)-6,7-dihydro-1H-pyrazolo[4,3-c]pyridin-5(4H)-yl)-1,7-naphthyridine], the half-inhibitory concentration (IC50) turned out to be 2740 nM. For `Cc1cc(N2CCc3c(c(C)nn3CCC34CCC(N)(CC3)CC4)C2)c2cnn(C)c2n1` [compound 91, 4-(2-(5-(1,6-dimethyl-1H-pyrazolo[3,4-b]pyridin-4-yl)-3-methyl-4,5,6,7-tetrahydro-1H-pyrazolo[4,3-c]pyridin-1-yl)ethyl)bicyclo[2.2.2]octan-1-amine] the value was 215 nM; for `Cc1cc(N2CCc3c(c(C)nn3CC34CCC(N)(CC3)CC4)C2)c2ccnc(C)c2n1` [compound 92, 4-((5-(2,8-dimethyl-1,7-naphthyridin-4-yl)-3-methyl-4,5,6,7-tetrahydro-1H-pyrazolo[4,3-c]pyridin-1-yl)methyl)bicyclo[2.2.2]octan-1-amine], 94 nM.
